Results from patent US5457030A, “Method and composition for determining antimicrobial susceptibility of the majority clinically significant Gram postitive organism” (MicroScan, Inc., priority 1993, dated 1995).
≈ marks a conversion by molar mass, not a printed value. Where two headings read alike, the source gives them in different places.

Experiments:
[1] = Redissolution of fluorogenic substrate after dehydration; assay type: physicochemical
Text: In the Sensititre™ procedure the substrates mixture consists of alanyl-7-amido-4-methylcoumarin, 4-methylumebelliferyl phosphate and 4-methylumbelliferyl nonanoate. […] Moreover, a special procedure of drying the substrate mixture on a solid carrier in combination with an emulsifying agent was the preferred method in the EP #0,09187 description. Removal of this compound from the mixture allows easy preparation and aliquoting of the fluorogenic substrate mixture. […] The current fluorogenic substrate mixture also allows for testing of a larger range of Gram positive species than previously described. Additionally, the use of the autoSCAN®-W/A allows monitoring of growth for between 31/2 and 15 hours, determination of minimum inhibitory concentration occurring only when sufficient growth has been achieved. This ensures that the minimum inhibitory concentration determinations of each isolate is determined at the optimal time.

Enterococcus faecalis [2] = assay: Minimum inhibitory concentration determination, Example 1 (Table 7); assay type: cell-based
Procedure: (§1) A primary inoculum suspension of a bacterial isolate in saline-pluronic, equivalent to a 0.5 McFarland turbidity standard is prepared. The final inoculum suspension is prepared by diluting a 0.3 ml aliquot of the primary suspension in 25 ml of Rapid Pos Inoculum Broth (B1015-14, Baxter Diagnostics Inc., MicroScan Division, West Sacramento, Calif.). A 115 μl of the final inoculum is added to the growth compartment which contains dried material of fluorogenic enzyme substrates equivalent to 0.023 mM leucine-7-amido-4-methylcoumarin, 0.012 mM phenylalanine-7-amido-4-methylcoumarin and 0.058 mM methylumbelliferyl phosphate and 1.15 mM HEPES buffer at pH 7.0. The final inoculum is also added to a number of compartments containing dried material identical to that in the growth well and different concentrations of an antimicrobial agent. An aliquot of the final inoculum is also added to a compartment, containing only dried HEPES buffer, acting as a control. The inoculated multicompartment device (panel) is inserted in the autoSCAN®-W/A. The fluorescence of each compartment is measured at predetermined times and a Growth Index is calculated by dividing the fluorescence of the growth compartment by that of the negative control compartment.
(§2) If the value of the Growth Index is equal to or exceeds a specified value, the Minimum Inhibitory Concentration for every antimicrobial agent present in the multicompartment device is calculated. Otherwise the device is returned to its position and measured again at the next read time. The read times in this example are 3.5, 4.5, 5.5, 7.0, 8.0, 11.0, and 15.0 hours. For calculation of minimum inhibitory concentration, the percent fluorescence of compartments containing the different concentrations of the antimicrobial agent is calculated by subtracting from each compartment the fluorescence of the control well and dividing it by the delta fluorescence of the growth compartment, obtained by subtracting the fluorescence of the negative control compartment from the fluorescence of the growth compartment. The minimum inhibitory concentration is calculated using a mathematical model specific for each concentration range of the antimicrobial agent. Using a mathematical model based on discriminate functional analysis, the minimum inhibitory concentration of each antimicrobial agent, for the organism tested, can be determined. Utilization of a discriminate function analysis model in microbiological pattern recognition is described in S. Bascomb, Computers in Taxonomy and Systematics, p. 65-102 In T. N. Bryant and J. W. T. Wimpenny (Ed.), Computers in Microbiology, a Practical Approach (IRL Press, Oxford). In an alternative embodiment the minimum inhibitory concentration for each antimicrobial agent for the organism tested can be determined by a breakpoint or threshold method or linear regression analysis. J. McKie, et al., Antimicrobial Agents and Chemotherapy (1980) v. 17, 813-823.
(§3) In Example 1, the growth of Enterococcus faecalis in wells containing specified amounts of antimicrobial agents is estimated by measurement of fluorescence. In Table 6, the percent fluorescence at different concentrations of antimicrobial agents is reported. For example, 0.12, 0.25, 0.5, 1, 2, 4 and 8 μg/mL of ampicillin (Am) were present in the microdilution wells.
In Table 7, the minimum inhibitory concentration for Example 1 are reported.

Enterococcus faecalis [3] = assay: Percent fluorescence (growth) in wells containing antimicrobial agents, Example 1 (Table 6); assay type: cell-based; conditions: Enterococcus faecalis; for activity at 0.25 µg/mL: .25 μg/mL; for activity at 32 µg/mL: 32 μg/mL
Procedure: as §1
^FL growth - ^FL control
as §2, §3
The numbers 105, 105, 67, 7, 6, 5, 6 are percent fluorescence values as calculated in […]. These figures are used to determine susceptibility according to the methods discussed on pages 12 and 13.

[4] = Enterococcus faecalis, Table 7, Example 1, read-out: concentration at which organism was found to be susceptible
[5] = Table 7, Enterococcus faecalis, Example 1, read-out: minimum inhibitory concentration
[6] = 1 μg/mL, read-out: percent fluorescence
[7] = 2 μg/mL, read-out: percent fluorescence
[8] = 4 μg/mL, read-out: percent fluorescence
[9] = 8 μg/mL, read-out: percent fluorescence
[10] = Enterococcus faecalis, Table 7, Example 1, read-out: concentration at which organism was found to be resistant
[11] = 16 μg/mL, read-out: percent fluorescence
[12] = Enterococcus faecalis, read-out: concentration at which organism was found to be susceptible
[13] = Enterococcus faecalis, read-out: minimum inhibitory concentration

Structure (SMILES)	MIC (Enterococcus faecalis [2]; [5]) [µg/mL]	activity at 2 µg/mL (Enterococcus faecalis [3]; [7]) [%]	activity at 4 µg/mL (Enterococcus faecalis [3]; [8]) [%]	activity at 8 µg/mL (Enterococcus faecalis [3]; [9]) [%]	MIC (Enterococcus faecalis [2]; [10]) [µg/mL]	activity at 16 µg/mL (Enterococcus faecalis [3]; [11]) [%]	further results
CCCCCCCCC(=O)Oc1ccc2c(C)cc(=O)oc2c1 [4-methylumbelliferyl nonanoate]	–	–	–	–	–	–	redissolution after dehydration [1]: difficult to redissolve evenly after dehydration
CC1(C)S[C@@H]2[C@H](NC(=O)[C@H](N)c3ccccc3)C(=O)N2[C@H]1C(=O)O [Ampicillin]	0.5 (≈ 1.43 µM)	6	5	6	–	–	MIC (Enterococcus faecalis [2]; [4]): 0.5 µg/mL (≈ 1.43 µM); activity at 1 µg/mL (Enterococcus faecalis [3]; [6]): 7%; activity at 0.12 µg/mL (Enterococcus faecalis [3]; .12 μg/mL, read-out: percent fluorescence): 105%; activity at 0.25 µg/mL (Enterococcus faecalis [3]; read-out: percent fluorescence): 105%; activity at 0.5 µg/mL (Enterococcus faecalis [3]; .5 μg/mL, read-out: percent fluorescence): 67%
Cn1nnnc1SCC1=C(C(=O)O)N2C(=O)[C@@H](NC(=O)[C@H](O)c3ccccc3)[C@H]2SC1 [Cefamandole]	> 16	–	–	104	> 16	105	–
Cc1nnc(SCC2=C(C(=O)O)N3C(=O)[C@@H](NC(=O)Cn4cnnn4)[C@H]3SC2)s1 [Cefazolin]	> 16	105	102	104	> 16	100	–
CO/N=C(\C(=O)N[C@@H]1C(=O)N2C(C(=O)O)=C(COC(C)=O)CS[C@H]12)c1csc(N)n1 [Cefotaxime]	> 4	–	10	8	–	8	MIC (Enterococcus faecalis [2]; [4]): < 4 µg/mL; activity at 32 µg/mL (Enterococcus faecalis [3]): 7%
CO/N=C(\C(=O)N[C@@H]1C(=O)N2C(C(=O)O)=C(CSc3nc(=O)c(=O)[nH]n3C)CS[C@H]12)c1csc(N)n1 [Ceftriaxone]	–	–	15	9	–	8	activity at 32 µg/mL (Enterococcus faecalis [3]): 7%
CO/N=C(\C(=O)N[C@@H]1C(=O)N2C(C(=O)O)=C(COC(N)=O)CS[C@H]12)c1ccco1 [Cefuroxime]	> 16	85	39	15	> 16	10	–
CC(=O)OCC1=C(C(=O)O)N2C(=O)[C@@H](NC(=O)Cc3cccs3)[C@H]2SC1 [Cephalothin, Cephalotin]	–	–	–	–	–	–	MIC (Enterococcus faecalis [2]; [12]): 16 µg/mL (≈ 40.4 µM); MIC (Enterococcus faecalis [2]; [13]): 16 µg/mL (≈ 40.4 µM); activity at 8 µg/mL (Enterococcus faecalis [3]; read-out: percent fluorescence): 103%; activity at 16 µg/mL (Enterococcus faecalis [3]; read-out: percent fluorescence): 7%
O=C(N[C@H](CO)[C@H](O)c1ccc([N+](=O)[O-])cc1)C(Cl)Cl [Chloramphenicol]	–	–	–	–	–	–	MIC (Enterococcus faecalis [2]; [12]): < 4 µg/mL; MIC (Enterococcus faecalis [2]; [13]): < 4 µg/mL; activity at 4 µg/mL (Enterococcus faecalis [3]; read-out: percent fluorescence): 9%; activity at 8 µg/mL (Enterococcus faecalis [3]; read-out: percent fluorescence): 6%; activity at 16 µg/mL (Enterococcus faecalis [3]; read-out: percent fluorescence): 4%
O=C(O)c1cn(C2CC2)c2cc(N3CCNCC3)c(F)cc2c1=O [Ciprofloxacin]	–	–	–	–	–	–	MIC (Enterococcus faecalis [2]; [12]): < 1 µg/mL; MIC (Enterococcus faecalis [2]; [13]): < 1 µg/mL; activity at 1 µg/mL (Enterococcus faecalis [3]; read-out: percent fluorescence): 6%; activity at 2 µg/mL (Enterococcus faecalis [3]; read-out: percent fluorescence): 6%; activity at 4 µg/mL (Enterococcus faecalis [3]; read-out: percent fluorescence): 6%
CCC[C@@H]1C[C@@H](C(=O)N[C@@H]([C@H]2O[C@H](SC)[C@H](O)[C@@H](O)[C@H]2O)[C@H](C)Cl)N(C)C1 [Clindaimycin, Clindamycin]	> 2	71	–	–	> 2	–	activity at 1 µg/mL (Enterococcus faecalis [3]; [6]): 75%; activity at 5 µg/mL (Enterococcus faecalis [3]; 5 μg/mL (printed 5Cd)): 83%; activity at 0.25 µg/mL (Enterococcus faecalis [3]; read-out: percent fluorescence): 88%
